Measurements: patent US4020160A, “Cyclodextrin sulfate salts as complement inhibitors” (American Cyanamid Company, priority 1975, dated 1977)
“And” between values parts separate entries of the source, which are not always exact repeats. Identical values can stand only once. Counter-ions that a name gives are not always drawn.

How the values were obtained:
complement system = conditions: reported in literature; cited from earlier work
[1] = reported in literature; cited from earlier work
[2] = test system: shunt pathway activated by cobra venom factor; assay type: cell-based, human; conditions: higher well number indicates higher activity; serial dilutions two-fold
From the text: (§1) This test measures the ability of activated human C1 to destroy fluid phase human C2 in the presence of C4 and appropriate dilutions of the test compound. An active inhibitor protects C2 from C1 and C4; (ii) Test, Code 035 (C3-C9 inhibitor) -- This test determines the ability of the late components of human complement (C3-C9) to lyse EAC 142 in the presence of appropriate dilutions of the test compound. An active inhibitor protects EAC 142 from lysis by human C3-C9; (iii) Test, Code 036 (C-Shunt inhibitor)-In this test human erythrocytes rendered fragile are lysed in autologous serum via the shunt pathway activated by cobra venom factor in the presence of appropriate dilutions of the test compound. Inhibition of the shunt pathway results in failure of lysis; (iv) Forssman Vasculitis Test -- Here, the well known complement dependent lesion, Forssman vasculitis, is produced in guinea pigs by intradermal injection of rabbit anti-Forssman antiserum. The lesion is measured in terms of diameter, edema and hemorrhage and the extent to which a combined index of these is inhibited by prior intraperitoneal injection of the test compound at 200 mg/kg is then reported, unless otherwise stated; (v) Forssman Shock Test -- Lethal shock is produced in guinea pigs by an i.v. injection of anti-Forssman antiserum and the harmonic mean death time of treated guinea pigs is compared with that of simultaneous controls; (vi) Complement Level Reduction Test -- In this test, the above dosed guinea pigs, or others, are bled for serum and the complement level is determined in undiluted serum by the capillary tube method of U.S. Pat. No. 3,876,376 and compared to undosed control guinea pigs; and (vii) Cap 50 Test -- Here, appropriate amounts of the test compound are added to a pool of guinea pig serum in vitro, after which the undiluted serum capillary tube assay referred to above is run. The concentration of compound inhibiting 50% is reported.

[3] = test system: late components of human complement (C3-C9); experiment: Test, Code 035 (C3-C9 inhibitor), lysis of EAC 142; assay type: biochemical; conditions: higher well number indicates higher activity; serial dilutions two-fold
From the text: as §1

activated human C1 = molecular target: T1, activated human C1 (Homo sapiens, UniProt P09871); experiment: Test, Code 026 (C1 inhibitor); assay type: biochemical; conditions: higher well number indicates higher activity, serial dilutions two-fold
T1 sequence (P09871 16-437 limits assumed): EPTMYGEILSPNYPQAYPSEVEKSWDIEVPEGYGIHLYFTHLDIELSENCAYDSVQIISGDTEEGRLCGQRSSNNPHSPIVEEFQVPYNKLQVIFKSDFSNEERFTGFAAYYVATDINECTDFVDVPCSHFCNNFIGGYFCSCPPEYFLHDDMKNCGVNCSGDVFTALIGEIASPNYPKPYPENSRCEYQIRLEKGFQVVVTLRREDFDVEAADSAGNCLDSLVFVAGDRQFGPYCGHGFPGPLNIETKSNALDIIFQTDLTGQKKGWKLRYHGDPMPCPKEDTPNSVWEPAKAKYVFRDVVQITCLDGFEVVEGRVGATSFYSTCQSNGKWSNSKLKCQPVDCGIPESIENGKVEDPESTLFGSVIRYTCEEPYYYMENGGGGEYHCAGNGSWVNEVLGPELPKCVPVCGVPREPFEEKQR
T1 sequence (P09871 438-688 limits assumed): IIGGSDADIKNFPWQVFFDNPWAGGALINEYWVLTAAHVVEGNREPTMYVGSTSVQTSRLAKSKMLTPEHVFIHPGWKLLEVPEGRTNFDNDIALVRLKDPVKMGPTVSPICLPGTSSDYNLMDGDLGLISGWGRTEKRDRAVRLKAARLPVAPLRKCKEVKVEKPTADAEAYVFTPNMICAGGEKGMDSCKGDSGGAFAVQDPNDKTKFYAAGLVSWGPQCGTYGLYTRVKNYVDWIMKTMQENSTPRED
From the text: as §1

whole complement = experiment: Complement Level Reduction Test (serum of dosed guinea pigs, capillary tube assay); assay type: in vivo, guinea pig
[4] = test system: lethal shock by i.v. anti-Forssman antiserum; experiment: Forssman Shock Test; assay type: in vivo; conditions: guinea pig, at 200 mg/kg; Control=3.15 min
Procedure: as §1, with “An active inhibitor protects EAC 142 from lysis by human C3-C9; (iii) Test, Code 036 (C-Shunt inhibitor)-In this test human erythrocytes rendered fragile are lysed in autologous serum via the shunt pathway activated by cobra venom factor in the presence of appropriate dilutions of the test compound. Inhibition of the shunt pathway results in failure of lysis; (iv) Forssman Vasculitis Test -- Here, the well known complement dependent lesion, Forssman vasculitis, is produced in guinea pigs by intradermal injection of rabbit anti-Forssman antiserum.” left out, “The concentration of compound inhibiting 50% is reported.” left out

Q: With `Nc1ccc2cc(S(=O)(=O)O)cc(O)c2c1N=Nc1ccc(NC(=O)Nc2ccc(N=Nc3c(N)ccc4cc(S(=O)(=O)O)cc(O)c34)c(S(=O)(=O)O)c2)cc1S(=O)(=O)O` [chlorazol fast pink, 3,3'-ureylenebis-[6-(2-amino-8-hydroxy-6-sulfo-1-naphthylazo)]benzenesulfonic acid tetrasodium salt] as the molecule, how does the anticomplementary effect (complement system) read?
A: anticomplementary effect

Q: Which “treatment of hereditary angioneurotic edema” value [1] does the source give for `NCCCCCC(=O)O` [epsilon-aminocaproic acid] here?
A: used with success

Q: For `NC[C@H]1CC[C@H](C(=O)O)CC1` [tranexamic acid], which “treatment of hereditary angioneurotic edema” value [1] is on record?
A: used with success

Q: Which anticomplementary effect (complement system) does the source give for heparin here?
A: anticomplementary effect

Q: Which results are given for “α-Cyclodextrin polysulfate triethylammonium salt”?
A: 036 (C-Shunt inhibitor) activity, wells of a two-fold serial dilution assay [2]: 3 wells and 5 wells; 035 (C3-C9 inhibitor) activity, wells of a two-fold serial dilution assay [3]: Neg; 026 (C1 inhibitor) activity, wells of a two-fold serial dilution assay (activated human C1): 11 wells

Q: With α-cyclodextrin polysulfate sodium salt as the molecule, how does the “036 (C-Shunt inhibitor) activity, wells of a two-fold serial dilution assay” value [2] read?
A: 6 wells

Q: What about the “In vivo Activity (Guinea Pig) % Inhibition” value (whole complement; 100 mg/kg i.v., time 2') of the same molecule?
A: 75%

Q: And the “In vivo Activity (Guinea Pig) % Inhibition” value (whole complement; 100 mg/kg i.v., time 30')?
A: 56%

Q: What about the “In vivo Activity (Guinea Pig) % Inhibition” value (whole complement; 100 mg/kg i.v., time 120') of the same molecule?
A: 39%

Q: And the “In vivo Activity (Guinea Pig) % Inhibition” value (whole complement; 200 mg/kg i.p., time 30')?
A: 71%

Q: And the “In vivo Activity (Guinea Pig) % Inhibition” value (whole complement; 200 mg/kg i.p., time 60')?
A: 28%

Q: What about the “In vivo Activity (Guinea Pig) % Inhibition” value (whole complement; 200 mg/kg i.p., time 120') of the same molecule?
A: 72%

Q: And the “035 (C3-C9 inhibitor) activity, wells of a two-fold serial dilution assay” value [3]?
A: Neg

Q: What about the “Forsmann Shock, harmonic mean death time” value [4] of the same molecule?
A: 31.1 min

Q: What about the “026 (C1 inhibitor) activity, wells of a two-fold serial dilution assay” value (activated human C1) of the same molecule?
A: 14 wells

Q: Which results are given for “β-Cyclodextrin polysulfate potassium salt”?
A: 036 (C-Shunt inhibitor) activity, wells of a two-fold serial dilution assay [2]: 6 wells; 035 (C3-C9 inhibitor) activity, wells of a two-fold serial dilution assay [3]: Neg; 026 (C1 inhibitor) activity, wells of a two-fold serial dilution assay (activated human C1): 10 wells

Q: Which “In vivo Activity (Guinea Pig) % Inhibition” value (whole complement; 100 mg/kg i.v., time 2') does the source give for β-Cyclodextrin polysulfate sodium salt here?
A: 75%

Q: What about the “In vivo Activity (Guinea Pig) % Inhibition” value (whole complement; 100 mg/kg i.v., time 30') of the same molecule?
A: 45%

Q: What about the “In vivo Activity (Guinea Pig) % Inhibition” value (whole complement; 100 mg/kg i.v., time 120') of the same molecule?
A: 27%

Q: And the “In vivo Activity (Guinea Pig) % Inhibition” value (whole complement; 200 mg/kg i.p., time 30')?
A: 49%

Q: What about the “In vivo Activity (Guinea Pig) % Inhibition” value (whole complement; 200 mg/kg i.p., time 60') of the same molecule?
A: 29%

Q: And the “In vivo Activity (Guinea Pig) % Inhibition” value (whole complement; 200 mg/kg i.p., time 120')?
A: 67%

Q: And the “Forsmann Shock, harmonic mean death time” value [4]?
A: > 90 min

Q: And the “026 (C1 inhibitor) activity, wells of a two-fold serial dilution assay” value (activated human C1; sodium salt)?
A: 12 wells and 11 wells and 10 wells

Q: Which “036 (C-Shunt inhibitor) activity, wells of a two-fold serial dilution assay” value [2] does the source give for “β-Cyclodextrin polysulfate triethylammonium salt” here?
A: 4 wells and 6 wells

Q: And the “035 (C3-C9 inhibitor) activity, wells of a two-fold serial dilution assay” value [3]?
A: Neg

Q: What about the “026 (C1 inhibitor) activity, wells of a two-fold serial dilution assay” value (activated human C1) of the same molecule?
A: 10 wells
